# Assay results from US20260125382A1, “COMPOUNDS FOR INHIBITING OR DEGRADING CDK2 AND/OR CDK9 AND MEDICINAL USE THEREOF” (KOREA RESEARCH INSTITUTE OF CHEMICAL TECHNOLOGY, priority 2022, published 2026).
# Columns and labels:
# CDK2 = molecular target: T1, CDK2 (Homo sapiens, UniProt P24941); assay: CDK protein degradation activity (Western blotting), CDK2; type: cell-based; conditions: MDA-MB-231 cells, 16 hours, Western blot
# T1 construct: endogenous in cells; host or cells: MDA-MB-231
# Summary of the method: (§1)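 CDK2 and CDK9 protein levels measured by Western blot with densitometry, using tubulin as loading reference. Cells were MDA-MB-231, exposed for 16 h to 100 nM, 1 μM or 10 μM compound or to DMSO.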
# CDK9 = molecular target: T2, CDK9 (Homo sapiens, UniProt P50750); assay: CDK protein degradation activity (Western blotting), CDK9; type: cell-based; conditions: MDA-MB-231 cells, 16 hours, Western blot
# T2 construct: endogenous in cells; host or cells: MDA-MB-231
# T2 sequence (P50750 whole entry): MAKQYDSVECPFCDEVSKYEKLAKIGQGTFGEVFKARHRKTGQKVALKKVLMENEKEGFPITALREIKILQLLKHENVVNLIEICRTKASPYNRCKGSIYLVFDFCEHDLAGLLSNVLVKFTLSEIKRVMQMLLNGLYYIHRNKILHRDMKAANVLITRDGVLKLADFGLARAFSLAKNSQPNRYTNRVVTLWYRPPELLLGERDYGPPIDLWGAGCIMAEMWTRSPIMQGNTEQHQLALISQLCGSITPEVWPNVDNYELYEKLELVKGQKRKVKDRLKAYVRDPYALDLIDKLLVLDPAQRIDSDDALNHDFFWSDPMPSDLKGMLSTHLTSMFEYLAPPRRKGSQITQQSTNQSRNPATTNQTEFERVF
# Summary of the method: as §1
Structure (SMILES),Enzyme degradation CDK2 (% remaining) @ 0.1 μM (CDK2),Enzyme degradation CDK2 (% remaining) @ 1 μM (CDK2),Enzyme degradation CDK2 (% remaining) @ 10 μM (CDK2),Enzyme degradation CDK9 (% remaining) @ 0.1 μM (CDK9),Enzyme degradation CDK9 (% remaining) @ 1 μM (CDK9),Enzyme degradation CDK9 (% remaining) @ 10 μM (CDK9)
"O=C1CCC(N2C(=O)c3ccc(N4CCC(CN5CCN(c6ccc(Nc7ncnc8c7ncn8[C@H]7C[C@@H](NC(=O)c8cccc(Cl)n8)C7)cc6)CC5)CC4)cc3C2=O)C(=O)N1 (stereo partly drawn) [Compound 391, 6-chloro-N-((1s,3s)-3-(6-((4-(4-((1-(2-(2,6-dioxopiperidin-3-yl)-1,3-dioxoisoindolin-5-yl)piperidin-4-yl)methyl)piperazin-1-yl)phenyl)amino)-9H-purin-9-yl)cyclobutyl)picolinamide]",10/10/10%,10/10/10%,10/10/10%,0/0/0%,0/0/0%,0/0/0%
"N#Cc1cccc(C(=O)NC2CC(n3cnc4c(Nc5ccc(N6CCN(CC7CCN(c8ccc9c(c8)C(=O)N([C@H]8CCC(=O)NC8=O)C9=O)CC7)CC6)cc5)ncnc43)C2)n1 (stereo partly drawn) [Compound 392, 6-cyano-N-((1s,3s)-3-(6-((4-(4-((1-(2-(2,6-dioxopiperidin-3-yl)-1,3-dioxoisoindolin-5-yl)piperidin-4-yl)methyl)piperazin-1-yl)phenyl)amino)-9H-purin-9-yl)cyclobutyl)picolinamide]",0%,0%,10%,0/0/0%,0/0/0%,0/0/0%
"O=C1CC[C@H](N2C(=O)c3ccc(N4CCC(CN5CCN(c6ccc(Nc7ncnc8c7ncn8C7CC(NC(=O)c8cccc(C(F)(F)F)n8)C7)cc6)CC5)CC4)cc3C2=O)C(=O)N1 (stereo partly drawn) [Compound 393, N-((1s,3s)-3-(6-((4-(4-((1-(2-(2,6-dioxopiperidin-3-yl)-1,3-dioxoisoindolin-5-yl)piperidin-4-yl)methyl)piperazin-1-yl)phenyl)amino)-9H-purin-9-yl)cyclobutyl)-6-(trifluoromethyl)picolinamide]",10/10/10%,10/10/10%,10/10/10%,0/0/0%,0/0/0%,0/0/0%
"O=C1CC[C@H](N2C(=O)c3ccc(N4CC(C(=O)N5CCC(CN6CCN(c7ccc(Nc8ncnc9c8ncn9[C@H]8C[C@@H](NC(=O)c9c(Cl)cccc9Cl)C8)cc7)CC6)CC5)C4)cc3C2=O)C(=O)N1 [Compound 394, 2,6-dichloro-N-((1s,3s)-3-(6-((4-(4-((1-(1-(2-(2,6-dioxopiperidin-3-yl)-1,3-dioxoisoindolin-5-yl)azetidin-3-carbonyl)piperidin-4-yl)methyl)piperazin-1-yl)phenyl)amino)-9H-purin-9-yl)cyclobutyl)benzamide]",20/20/20%,20/20/20%,20/20/20%,0/0/0%,0/0/0%,0/0/0%
"O=C1CC[C@H](N2C(=O)c3ccc(N4CCC(C(=O)N5CCC(CN6CCN(c7ccc(Nc8ncnc9c8ncn9C8CC(NC(=O)c9c(Cl)cccc9Cl)C8)cc7)CC6)CC5)CC4)cc3C2=O)C(=O)N1 (stereo partly drawn) [Compound 395, 2,6-dichloro-N-((1s,3s)-3-(6-((4-(4-((1-(1-(2-(2,6-dioxopiperidin-3-yl)-1,3-dioxoisoindolin-5-yl)piperidin-4-carbonyl)piperidin-4-yl)methyl)piperazin-1-yl)phenyl)amino)-9H-purin-9-yl)cyclobutyl)benzamide]",20/20/20%,20/20/20%,20/20/20%,0/0/0%,0/0/0%,0/0/0%
"O=C1CCC(N2C(=O)c3ccc(N4CCC(CN5CCC(CCNc6ncnc7c6ncn7[C@H]6C[C@@H](NC(=O)c7c(Cl)cccc7Cl)C6)CC5)CC4)cc3C2=O)C(=O)N1 (stereo partly drawn) [Compound 396, 2,6-dichloro-N-((1s,3s)-3-(6-((2-(1-((1-(2-(2,6-dioxopiperidin-3-yl)-1,3-dioxoisoindolin-5-yl)piperidin-4-yl)methyl)piperidin-4-yl)ethyl)amino)-9H-purin-9-yl)cyclobutyl)benzamide]",20%,30%,30%,20/20/20%,20/20/20%,20/20/20%
"O=C1CC[C@H](N2C(=O)c3cc(F)c(N4CCC(CN5CCC(CCNc6ncnc7c6ncn7[C@H]6C[C@@H](NC(=O)c7c(Cl)cccc7Cl)C6)CC5)CC4)cc3C2=O)C(=O)N1 [Compound 397, 2,6-dichloro-N-((1s,3s)-3-(6-((2-(1-((1-(2-(2,6-dioxopiperidin-3-yl)-6-fluoro-1,3-dioxoisoindolin-5-yl)piperidin-4-yl)methyl)piperidin-4-yl)ethyl)amino)-9H-purin-9-yl)cyclobutyl)benzamide]",50%,30%,30%,70%,10%,10%
"O=C1CC[C@H](n2nnc3ccc(N4CCC(CN5CCC(CCNc6ncnc7c6ncn7C6CC(NC(=O)c7c(Cl)cccc7Cl)C6)CC5)CC4)cc3c2=O)C(=O)N1 (stereo partly drawn) [Compound 398, 2,6-dichloro-N-((1s,3s)-3-(6-((2-(1-((1-(3-(2,6-dioxopiperidin-3-yl)-4-oxo-3,4-dihydrobenzo[d][1,2,3]triazin-6-yl)piperidin-4-yl)methyl)piperidin-4-yl)ethyl)amino)-9H-purin-9-yl)cyclobutyl)benzamide]",20%,30%,30%,20%,10%,10%
"O=C1CC[C@H](N2C(=O)c3ccc(N4CC(C(=O)N5CCC(CN6CCC(CCNc7ncnc8c7ncn8C7CC(NC(=O)c8c(Cl)cccc8Cl)C7)CC6)CC5)C4)cc3C2=O)C(=O)N1 (stereo partly drawn) [Compound 399, 2,6-dichloro-N-((1s,3s)-3-(6-((2-(1-((1-(1-(2-(2,6-dioxopiperidin-3-yl)-1,3-dioxoisoindolin-5-yl)azetidin-3-carbonyl)piperidin-4-yl)methyl)piperidin-4-yl)ethyl)amino)-9H-purin-9-yl)cyclobutyl)benzamide]",30%,40%,40%,0/0/0%,0/0/0%,0/0/0%
"O=C1CCC(N2C(=O)c3ccc(N4CCC(C(=O)N5CCC(CN6CCC(CCNc7ncnc8c7ncn8[C@H]7C[C@@H](NC(=O)c8c(Cl)cccc8Cl)C7)CC6)CC5)CC4)cc3C2=O)C(=O)N1 (stereo partly drawn) [Compound 400, 2,6-dichloro-N-((1s,3s)-3-(6-((2-(1-((1-(1-(2-(2,6-dioxopiperidin-3-yl)-1,3-dioxoisoindolin-5-yl)piperidin-4-carbonyl)piperidin-4-yl)methyl)piperidin-4-yl)ethyl)amino)-9H-purin-9-yl)cyclobutyl)benzamide]",30%,30%,40%,0/0/0%,0/0/0%,0/0/0%
"Cc1cccc(C(=O)N[C@H]2C[C@@H](n3cnc4c(Nc5ccc(N6CCN(CC7CCN(C(=O)C8CN(c9ccc%10c(c9)C(=O)N([C@H]9CCC(=O)NC9=O)C%10=O)C8)CC7)CC6)cc5)ncnc43)C2)n1 [Compound 401, N-((1s,3s)-3-(6-((4-(4-((1-(1-(2-(2,6-dioxopiperidin-3-yl)-1,3-dioxoisoindolin-5-yl)azetidin-3-carbonyl)piperidin-4-yl)methyl)piperazin-1-yl)phenyl)amino)-9H-purin-9-yl)cyclobutyl)-6-methylpicolinamide]",30%,20%,20%,0/0/0%,0/0/0%,0/0/0%
"Cc1cccc(C(=O)NC2CC(n3cnc4c(NCCC5CCN(CC6CCN(CC7CN(c8ccc9c(c8)C(=O)N([C@H]8CCC(=O)NC8=O)C9=O)C7)CC6)CC5)ncnc43)C2)n1 (stereo partly drawn) [Compound 402, N-((1s,3s)-3-(6-((2-(1-((1-((1-(2-(2,6-dioxopiperidin-3-yl)-1,3-dioxoisoindolin-5-yl)azetidin-3-yl)methyl)piperidin-4-yl)methyl)piperidin-4-yl)ethyl)amino)-9H-purin-9-yl)cyclobutyl)-6-methylpicolinamide]",70%,50%,50%,0/0/0%,0/0/0%,0/0/0%
